US20180064730A1 (priority 2014, published 2018)
Values joined by “and” are separate entries in the source; they are usually repeats but may differ in a detail not shown here. Equal entries are not always repeated. “Also recorded” adds a separate entry of the source. Where two headings read alike, the source gives them in different places.

How the values were obtained:
[1] = tested on: IL-8 secretion from CF lung epithelial cells; test: Suppression of constitutive IL-8 secretion from CF lung epithelial cells; type: cell-based, human; details: for IC50: constitutive IL-8 hypersecretion, read-out: K50 (concentration causing a 50% reduction of IL-8 secretion)
Description: Analysis of cardiac glycoside activities identifies a structure-activity-relationship for IL-8 suppression. […] Using all the data we were also able to derive a structure-activity relationship (see Table 1). Briefly, suppression of IL-8 secretion from CF lung epithelial cells is optimally promoted by the presence of glycosyl moieties at the 3-position of the cholesterol nucleus, and by the absence of oxygen-containing substitutions at or near the 12-position on the C ring. Activity declines when glycosyl moieties are absent from the 3-position, and when oxygen-containing substitutions are made at or near the 12-position on the C ring. […] We therefore give the equatorial 12-position and its neighbors crucial negative pharmacophoric importance, and glycosidic substitution at the 3-position positive pharmacophoric importance for the control of IL-8 secretion from CF lung epithelial cells.
(§1) Previously published data had implicated a dysfunctional TNFα/NFκB signaling pathway as responsible for the pro-inflammatory phenotype of the CF lung. […] (46 Srivastava et al, 2004) (47 Yang Q, et al, 2005).

[2] = tested on: control patients / heart failure patients; details: cited from earlier work
[3] = cited from earlier work
[4] = tested on: TNFalpha-activated NFκB activation and IL-8 expression; details: CF airway epithelial cells; cited from earlier work
[5] = tested on: TNFα/NFκB signaling pathway; test: Reverse Phase Protein Microarray of IB3-1 and CFTR-repaired IB3-1/S9 cells; type: cell-based, human; details: ID90 concentrations; IB3-1 and IB3-1/S9 cells
Description: as §1

[6] = tested on: CF patients; test: Phase II clinical trial of digitoxin in cystic fibrosis: adverse events; details: for Pulm, upper_resp adverse events (cases) / Dermatolog adverse events / Gastrointestinal adverse events / General adverse events / Musculoskel adverse events / Neurological adverse events / Reproductive adverse events / Total (all) adverse events (cases): 28 days, n = 8; for Incidence Rate, all adverse events / Incidence Rate, pulmonary adverse events: person-time 224
Procedure: Experiment# 1.1. Study design and methods: The study was a randomized, double-blind, placebo controlled, repeat dosing escalation trial. Adults 18-45 years of age with a diagnosis of CF and meet Inclusion/exclusion criteria were selected for the trial. The 24 evaluable patients were studied at a single site, and randomized with respect to drug treatment and placebo at a ratio of 2:1, respectively. Screening included a 24 hour Holter monitor to screen for possible for baseline dysrhythmias. […] Dosing was once a day for 28 days with 8 patients in each group.
The inclusion criteria included (i) male or female, 18 to 45 years of age; (ii) confirmed diagnosis of CF by sweat test (a sweat chloride concentration≧60 meq/L), and a genotype consistent with a CF diagnosis; (iii) FEV 1, % PRED≧40%; (iv) clinically stable with no evidence of acute upper respiratory or lower respiratory tract infection or current pulmonary exacerbation; (v) ability to perform spirometry; (vi) weight≧45 kg at screening and at visit #1 (dosing).
During this period, subjects were not taking macrolide antibiotics.

[7] = tested on: Wuhan influenza virus induced lung inflammation; test: Rodent influenza lung inflammation model, lung cytokines/chemokines by ELISA; type: in vivo, cotton rat
Procedure: Applicant previously conducted a study on a mammal, a rodent with induced lung inflammation from Wuhan influenza virus.
Lung tissue was harvested on day 7, and assayed in terms of pg/ml for iFN-Gamma, GRO/KC, MTP-2, TNF-ALPHA, IL-1B, MCP-1. TGF-Beta, and GM-CSF. Rodents lack IL-8, and instead have GRO/KC and MIP-2.
Methods: The assays for different cytokines and chemokines were performed with commercial micro-sandwich ELISA assays. (Searchlight System, Pierce-Thermo). The results shown are for 22 patients, including 14 females and 8 males.

[8] = biological target: T1, TNF-alpha-activated TNFR and TRADD (Homo sapiens, UniProt P19438+Q15628); test: Interaction between TNF-alpha-activated TNFR and TRADD
T1 sequence (Q15628 1-312): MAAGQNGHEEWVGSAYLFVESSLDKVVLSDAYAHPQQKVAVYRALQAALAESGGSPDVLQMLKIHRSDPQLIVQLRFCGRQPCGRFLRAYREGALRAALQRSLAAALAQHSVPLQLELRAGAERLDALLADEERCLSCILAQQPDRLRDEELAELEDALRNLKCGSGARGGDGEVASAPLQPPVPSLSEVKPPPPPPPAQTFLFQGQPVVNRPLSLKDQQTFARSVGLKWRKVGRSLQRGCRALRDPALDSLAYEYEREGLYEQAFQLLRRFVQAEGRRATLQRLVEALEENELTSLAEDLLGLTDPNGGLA
T1 sequence (P19438 22-455 limits assumed): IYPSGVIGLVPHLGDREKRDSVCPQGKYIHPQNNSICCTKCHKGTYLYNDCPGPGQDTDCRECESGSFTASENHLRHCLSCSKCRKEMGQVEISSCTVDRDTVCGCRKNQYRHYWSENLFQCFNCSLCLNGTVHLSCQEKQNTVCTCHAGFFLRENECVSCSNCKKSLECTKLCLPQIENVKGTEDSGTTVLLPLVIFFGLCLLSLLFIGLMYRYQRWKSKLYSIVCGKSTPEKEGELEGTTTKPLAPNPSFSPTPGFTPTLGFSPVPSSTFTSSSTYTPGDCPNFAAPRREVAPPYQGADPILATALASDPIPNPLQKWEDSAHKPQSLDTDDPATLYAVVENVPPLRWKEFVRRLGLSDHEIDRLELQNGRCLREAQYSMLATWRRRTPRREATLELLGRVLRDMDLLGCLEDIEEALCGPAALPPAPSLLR
Description: Increased expression of TRADD is associated with a greater rate of decline in CF lung function. […] Trend-lines are based on data for female CF patients, who make up the majority of the patients.

[9] = tested on: CF children; details: CF vs control children; cited from earlier work
[10] = 3, 10 and 30 mg/kg daily, lung harvested day 7

Compound: CC(=O)O[C@H]1CC[C@]2(C=O)[C@H]3CC[C@]4(C)[C@@H](C5=CC(=O)OC5)CC[C@]4(O)[C@@H]3CC[C@]2(O)C1 [Acetyl Strophanthidin]
- IC50 [1]: 117 nM

Compound: C[C@]12CC[C@H](O)C[C@H]1CC[C@@H]1[C@@H]2CC[C@]2(C)[C@@H](C3=CC(=O)OC3)CC[C@]12O [Digitoxigenin]
- IC50 ([1]; Homo sapiens, Epithelial cell): 73.6 nM

Compound: C[C@H]1O[C@@H](O[C@H]2[C@@H](O)C[C@H](O[C@H]3[C@@H](O)C[C@H](O[C@H]4CC[C@@]5(C)[C@H](CC[C@@H]6[C@@H]5CC[C@]5(C)[C@@H](C7=CC(=O)OC7)CC[C@]65O)C4)O[C@@H]3C)O[C@@H]2C)C[C@H](O)[C@@H]1O [Digitoxin]
- incidence of adverse events vs digoxin ([2]; U.S. 1995-1998 retrospective, heart failure patients): approximately three-fold lower incidence
- side effects ([2]; control patients, ca. 30 nM in the circulation): only modest, or in many cases, undetectable side effects
- bioavailable ([3]; given by mouth): 100%
- bound to blood and tissue proteins ([3]; human, in vivo): 90%
- TNFalpha-activated NFκB activation and IL-8 expression [4]: blocks
- CF-related constitutive phosphorylation of IKBα [5]: significantly blocked
- CF-related constitutive phosphorylation of NFκB,p65 [5]: significantly blocked
- phosphorylation of IKKα [5]: somewhat suppressed
- Pulm, upper_resp adverse events (cases) ([6]; 0.05 mg by mouth daily): 9
- Dermatolog adverse events ([6]; 0.05 mg daily): 0
- Gastrointestinal adverse events ([6]; 0.05 mg daily): 5
- General adverse events ([6]; 0.05 mg daily): 3
- Musculoskel adverse events ([6]; 0.05 mg daily): 2
- Neurological adverse events ([6]; 0.05 mg daily): 8
- Reproductive adverse events ([6]; 0.05 mg daily): 1
- Total (all) adverse events (cases) ([6]; 0.05 mg daily): 29
- Incidence Rate, all adverse events ([6]; 0.05 mg daily): 0.1295
- Incidence Rate, pulmonary adverse events ([6]; 0.05 mg daily): 0.04018
- Inc. rate diff., all adverse events ([6]; 0.05 mg vs placebo): −0.008929
- Inc. rate diff., pulmonary adverse events ([6]; 0.05 mg vs placebo): −0.008929
- Prev. frac. pop, all adverse events ([6]; 0.05 mg vs placebo): 0.03571
- Prev. frac. pop, pulmonary adverse events ([6]; 0.05 mg vs placebo): 0.09091
- prev. frac. ex., all adverse events ([6]; 0.05 mg vs placebo): 0.06897
- prev. frac. ex., pulmonary adverse events ([6]; 0.05 mg vs placebo): 0.1818
- reduction in pulmonary, upper respiratory adverse events, significance ([6]; 0.05 mg/day vs placebo): not statistically significant
- Pulm, upper_resp adverse events (cases) ([6]; 0.10 mg by mouth daily): 2
- Dermatolog adverse events ([6]; 0.10 mg daily): 1
- Gastrointestinal adverse events ([6]; 0.10 mg daily): 5
- General adverse events ([6]; 0.10 mg daily): 3
- Musculoskel adverse events ([6]; 0.10 mg daily): 1
- Neurological adverse events ([6]; 0.10 mg daily): 2
- Reproductive adverse events ([6]; 0.10 mg daily): 0
- Total (all) adverse events (cases) ([6]; 0.10 mg daily): 15
- Incidence Rate, all adverse events ([6]; 0.10 mg daily): 0.06696-3 and 0.06696
- Incidence Rate, pulmonary adverse events ([6]; 0.10 mg daily): 0.008929
- Inc. rate diff., all adverse events ([6]; 0.10 mg vs 0.05 mg): −0.0625
- Inc. rate diff., pulmonary adverse events ([6]; 0.10 mg vs 0.05 mg): −0.03125
- Prev. frac. pop, all adverse events ([6]; 0.10 mg vs 0.05 mg): 0.2414
- Prev. frac. pop, pulmonary adverse events ([6]; 0.10 mg vs 0.05 mg): 0.3889
- prev. frac. ex., all adverse events ([6]; 0.10 mg vs 0.05 mg): 0.4828
- prev. frac. ex., pulmonary adverse events ([6]; 0.10 mg vs 0.05 mg): 0.7778
- Inc. rate diff., all adverse events ([6]; 0.10 mg vs placebo): −0.05357
- Inc. rate diff., pulmonary adverse events ([6]; 0.10 mg vs placebo): −0.04018.
- Prev. frac. pop, all adverse events ([6]; 0.10 mg vs placebo): 0.2222
- Prev. frac. pop, pulmonary adverse events ([6]; 0.10 mg vs placebo): 0.4091
- prev. frac. ex., all adverse events ([6]; 0.10 mg vs placebo): 0.4444
- prev. frac. ex., pulmonary adverse events ([6]; 0.10 mg vs placebo): 0.8182
- reduction in pulmonary, upper respiratory adverse events, significance ([6]; 0.10 mg/day (high dose) vs 0.05 mg/day (low dose)): statistically significant
- reduction in pulmonary, upper respiratory adverse events, significance ([6]; 0.10 mg/day vs placebo): statistically significant
- serious adverse events ([6]; clinical trial in CF patients): no serious adverse events
- GRO/KC in lung tissue [7, 10]: significant reductions; also recorded: suppressed
- IFN-gamma in lung tissue [7, 10]: significant reductions
- IL-1B in lung tissue [7, 10]: No significant changes
- MCP-1 in lung tissue [7, 10]: significant reductions
- MIP-2 in lung tissue [7, 10]: significant reductions; also recorded: suppressed
- TGF-B in lung tissue [7, 10]: No significant changes
- TNF-alpha in lung tissue [7, 10]: significant reductions; also recorded: reduced
- lung inflammation in rodent model ([7]; experimental model of lung inflammation): profound, dose-dependent reduction
- interaction between TNF-alpha-activated TNFR and TRADD [8]: blocks
- IC50 ([1]; Homo sapiens, Epithelial cell): ~0.9 nM

Compound: C[C@]12CC[C@H](O)C[C@H]1CC[C@@H]1[C@@H]2C[C@@H](O)[C@]2(C)[C@@H](C3=CC(=O)OC3)CC[C@]12O [Digoxigenin]
- IC50 ([1]; Homo sapiens, Epithelial cell): 34.1 nM

Compound: C[C@H]1O[C@@H](O[C@H]2[C@@H](O)C[C@H](O[C@H]3[C@@H](O)C[C@H](O[C@H]4CC[C@@]5(C)[C@H](CC[C@@H]6[C@@H]5C[C@@H](O)[C@]5(C)[C@@H](C7=CC(=O)OC7)CC[C@]65O)C4)O[C@@H]3C)O[C@@H]2C)C[C@H](O)[C@@H]1O [Digoxin]
- exercise capacity or exercising cardiac function [9]: no difference
- IC50 ([1]; Homo sapiens, Epithelial cell): 27 nM
- IC50 [1]: 27.1 nM

Compound: CO[C@H]1C[C@H](O[C@H]2CC[C@@]3(C)[C@H](CC[C@@H]4[C@@H]3CC[C@]3(C)[C@@H](C5=CC(=O)OC5)[C@@H](OC(C)=O)C[C@]43O)C2)O[C@@H](C)[C@@H]1O [Oleandrin]
- IC50 ([1]; Homo sapiens, Epithelial cell): 2 nM

Compound: C[C@@H]1O[C@@H](O[C@H]2C[C@@H](O)[C@]3(CO)[C@H]4[C@H](O)C[C@]5(C)[C@@H](C6=CC(=O)OC6)CC[C@]5(O)[C@@H]4CC[C@]3(O)C2)[C@H](O)[C@H](O)[C@H]1O [Ouabain]
- IC50 ([1]; Homo sapiens, Epithelial cell): 7.9 nM

Compound: Digitoxigenin 3,12-diAc
- activity for suppression of IL-8 secretion [1]: Activity is altogether lost
